From US3966735A, “1-3-(4-Fluorobenzoyl)propyl-4-substituted phenoxy ethyl piperazine” (Kali-Chemie Aktiengesellschaft, priority 1973, dated 1976)

Key:
[1] = Acute toxicity, single oral administration (Test 1); conditions: mouse, in vivo, fasting white mice, NMRI strain, Litchfield and Wilcoxon
Description: 1. Acute toxicity: The acute toxicity is determined by a single oral administration to fasting white mice of the NMRI strain. The […] lethal dose (LD50) is computed in accordance with the method described by J.T. Litchfield and F. Wilcoxon in Journal of Pharmacology and Experimental Therapeutics, vol. 96, page 99 (1949).

mouse = assay: Test of prolongation of narcosis induced by hexobarbital (Test 2); format: in vivo; conditions: peroral, 30 minutes before 65 mg/kg hexobarbital i.v., dose required to double the sleeping time, read-out: Narcotic prolongation effect (Test 2)
Description: 2. Test of prolongation of narcosis induced by hexobarbital: In accordance with this test, the test substance is administered perorally to a mouse. After an interval of 30 minutes, a dose of 65 milligrams of hexobarbital per kilogram of body weight is administered intravenously. The result is reported as the dose of the test compound that was required to double the period of sleeping time that was induced by the hexobarbital.

[2] = tested on: female mice of the NMRI strain; assay: Test of sedative effectiveness (Test 3); format: in vivo, mouse (female mice of the NMRI strain); conditions: Mus musculus, ip, 0.5 h; intraperitoneal, on awakening from 100 mg/kg hexobarbital i.p.; dose required to induce sleep for 30 minutes; read-out: Effective sedative dose ED50 (Test 3)
Description: 3. Test of sedative effectiveness: In this test is measured the period of narcosis that is induced by the test substance following a period of narcosis induced by hexobarbital. A dose of 100 milligrams of hexobarbital per kilogram of body weight is administered intraperitoneally to female mice of the NMRI strain. As soon as the mouse revives or awakens from the narcosis induced by the dose of hexobarbital, a measured dose of the test substance is administered intraperitoneally. The period between the administration of the test substance and the second revival of the mouse is then noted. From the length of this second period is calculated the dose of the test substance that was required to induce sleep for a period of 30 minutes and this dose is referred to as the effective sedative dose (ED50).

[3] = tested on: female mice of the NMRI strain; assay: Squirrel-cage test for determining effect of drugs on motility (Test 4); format: in vivo, mouse (female mice of the NMRI strain); conditions: peroral, 20 mice, revolutions over 5 hours, compared with peroral chlordiazepoxide
Description: 4. Squirrel-cage test for determining effect of drugs on motility: The test substance is administered perorally to female mice of the NMRI strain that had previously not been exercised in a squirrel cage. Twenty mice are placed into the revolving cylinder of the squirrel cage and they are allowed to run freely therein. The number of revolutions through which the cylinder in the squirrel cage spins every 15 minutes is noted during the course of an extended period of 5 hours, when the test is discontinued. The average of the number of revolutions per minute is calculated and represented on a graph. These values are then compared with […] and the results are reported in milligrams per kilogram of body weight.

Row | Compound | LD50 [1] [mg/kg] | ED (2-fold sleeping time) (mouse) [mg/kg] | ED50 [2] [mg/kg] | Squirrel cage motility test versus 21.5 mg/kg chlordiazepoxide (Test 4) [3] [mg/kg]
1 | CCC(=O)c1ccc(OCCN2CCN(CCCC(=O)c3ccc(F)cc3)CC2)c(Cl)c1.Cl.Cl [Substance 3, 1-[3-(4-Fluorobenzoyl)propyl]-4-[2-(4-propionyl-2-chlorophenoxy)ethyl]piperazine dihydrochloride] | 860 | 20 | 14 | 1.5
2 | Cc1ccc([N+](=O)[O-])cc1OCCN1CCN(CCCC(=O)c2ccc(F)cc2)CC1.Cl.Cl [Substance 6, 1-[3-(4-Fluorobenzoyl)propyl]-4-[2-(5-nitro-2-methylphenoxy)ethyl]piperazine dihydrochloride] | > 1470 | 32 | 23 | –
3 | CS(=O)(=O)c1ccc(OCCN2CCN(CCCC(=O)c3ccc(F)cc3)CC2)cc1.Cl.Cl [Substance 7, 1-[3-(4-Fluorobenzoyl)propyl]-4-[2-(4-methylsulfonylphenoxy)ethyl]piperazine dihydrochloride] | 825 | 46 | 30 | 6.8
4 | Cl.Cl.O=C(CCCN1CCN(CCSc2ccc(Cl)cc2)CC1)c1ccc(F)cc1 [Substance 2, 1-[3-(4-Fluorobenzoyl)propyl]-4-[2-(4-chlorophenylthio)-ethyl]piperazine dihydrochloride] | > 1470 | 20 | 30 | > 10
5 | Cl.Cl.N#Cc1ccc(OCCN2CCN(CCCC(=O)c3ccc(F)cc3)CC2)cc1 [Substance 1, 1-[3-(4-Fluorobenzoyl)propyl]-4-[2-(4-cyanophenoxy)ethyl]-piperazine dihydrochloride] | 215 | 10 | 21.5 | 0.7
6 | COc1cc(C)ccc1OCCN1CCN(CCCC(=O)c2ccc(F)cc2)CC1.Cl.Cl [Substance 5, 1-[3-(4-Fluorobenzoyl)propyl]-4-[2-(4-methyl-2-methoxyphenoxy)ethyl]piperazine dihydrochloride] | 458 | 46 | 7 | 3.2
7 | Cc1ccc(OCCN2CCN(CCCC(=O)c3ccc(F)cc3)CC2)c([N+](=O)[O-])c1.Cl.Cl [Substance 4, 1-[3-(4-Fluorobenzoyl)propyl]-4-[2-(4-methyl-2-nitrophenoxy)ethyl]piperazine dihydrochloride] | 1720 | 20 | 46 | –
8 | Cl.Cl.O=C(CCCN1CCN(CCSc2ccc([N+](=O)[O-])cc2)CC1)c1ccc(F)cc1 [Substance 8, 1-[3-(4-Fluorobenzoyl)propyl]-4-[2-(4-nitrophenylthio)-ethyl]piperazine dihydrochloride] | 499 | 6 | 30 | 6.8
